16 molecules from US8436000B2, “Substituted carbamate derivatives as modulators of corticotropin-releasing factor receptor activity” (Bristol-Myers Squibb Company, priority 2008, dated 2013) can be followed below.

System in the first data set: not given
Experiment: not given
Conditions: not given
Consider `COc1nc(C)c(Nc2nc(Cl)cn([C@H](COC(=O)Nc3cccc(C#N)c3)C3CC3)c2=O)cc1C` [Example 2, (S)-2-(5-Chloro-3-(6-methoxy-2,5-dimethylpyridin-3-ylamino)-2-oxopyrazin-1(2H)-yl)-2-cyclopropylethyl 3-cyanophenylcarbamate], for which the melting point is 206.5 to 207.2 °C.

The next data set addresses T1, CRF1 (Rattus norvegicus, UniProt P35353).
T1 construct: Frozen rat frontal cortex was thawed rapidly in assay buffer; tissue Analytical Biological Services, Inc. (Wilmington, Del.); host or cells: rat frontal cortex
T1 sequence (P35353 24-415): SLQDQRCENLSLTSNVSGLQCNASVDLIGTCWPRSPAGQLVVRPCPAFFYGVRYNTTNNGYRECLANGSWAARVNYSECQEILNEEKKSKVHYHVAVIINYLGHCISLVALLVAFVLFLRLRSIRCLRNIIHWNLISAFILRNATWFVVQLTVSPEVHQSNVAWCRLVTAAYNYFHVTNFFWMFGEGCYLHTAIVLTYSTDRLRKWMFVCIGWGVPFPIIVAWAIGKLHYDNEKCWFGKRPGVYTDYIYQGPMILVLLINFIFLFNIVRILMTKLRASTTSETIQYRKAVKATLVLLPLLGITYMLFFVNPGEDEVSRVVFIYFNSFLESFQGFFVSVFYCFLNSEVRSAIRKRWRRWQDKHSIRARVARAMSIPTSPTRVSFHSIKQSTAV
The data set can be described thus: CRF1 Binding Assay (125I-ovine-CRF displacement, rat frontal cortex homogenate). Particulars: 125I-o-CRF, class symbols. As to the method:
Frozen rat frontal cortex was thawed rapidly in assay buffer containing 50 mM Hepes (pH 7.0 at 23° C.), 10 mM MgCl2, 2 mM EGTA, 1 μg/ml aprotinin, 1 μg/ml leupeptin, 1 Mg/ml pepstatin A, 0.005% Triton X-100, 10 U/ml bacitracin and 0.1% ovalbumin and homogenized. The suspension was centrifuged at 32000×g for 30 minutes. The resulting supernatant was discarded and the pellet resuspended by homogenization in assay buffer and centrifuged again. The supernatant was discarded and the pellet resuspended by homogenization in assay buffer and frozen at −70° C. On the day of the experiment aliquots of the homogenate were thawed quickly and 25 μg/well added to […] ^125I-ovine-CRF (^125I-o-CRF) and drugs in a total volume of 100 μl assay buffer. The assay mixture was incubated for 2 hr at 21° C. Bound and free radioligand were then separated by rapid filtration using glass fiber filters (Whatman GF/B, pretreated with 0.3% PEI (polyethylenimine)) on a Brandel Cell Harvester. Filters were then washed multiple times with ice cold wash buffer (PBS w/o Ca^2+ and Mg^2+, 0.01% Triton X-100; pH 7.0 at 23° C.). Non-specific binding was defined using 1 μM DMP696, a CRF1 selective antagonist [Li, Y-W. et al., CNS Drug Reviews 11: 21-52, (2005)]. Filters were then counted in a Wallac Wizard gamma counter. IC50 values were determined in a five point (five drug concentrations) or ten point (ten drug concentrations) competition assay using non-linear regression by Microsoft Excel-fit. Rat frontal cortex was obtained from Analytical Biological Services, Inc. (Wilmington, Del.). ^125I-ovine-CRF (2200 Ci/mmol) was obtained from PerkinElmer Life Sciences, Inc. (Boston, Mass.).
In the case of `COc1nc(C)c(Nc2nc(Cl)cn([C@H](COC(=O)Nc3ccccc3)C3CC3)c2=O)cc1C` [Example 1, (S)-2-(5-Chloro-3-(6-methoxy-2,5-dimethylpyridin-3-ylamino)-2-oxopyrazin-1(2H)-yl)-2-cyclopropylethyl phenylcarbamate], the IC50 lay in the range of 0.1 to 100 nM. Molecule `COc1nc(C)c(Nc2nc(Cl)cn([C@H](COC(=O)Nc3cccc(C#N)c3)C3CC3)c2=O)cc1C` [Example 2, (S)-2-(5-Chloro-3-(6-methoxy-2,5-dimethylpyridin-3-ylamino)-2-oxopyrazin-1(2H)-yl)-2-cyclopropylethyl 3-cyanophenylcarbamate] had an IC50 of 0.1 to 100 nM. In turn, `COc1nc(C)c(Nc2nc(Cl)cn([C@H](COC(=O)Nc3cccnc3)C3CC3)c2=O)cc1C` [Example 3, (S)-2-(5-Chloro-3-(6-methoxy-2,5-dimethylpyridin-3-ylamino)-2-oxopyrazin-1(2H)-yl)-2-cyclopropylethyl pyridin-3-ylcarbamate] yielded a half-maximal inhibitory concentration (IC50) of 0.1 to 100 nM. Regarding `COc1nc(C)c(Nc2nc(Cl)cn([C@H](COC(=O)Nc3ccccc3Cl)C3CC3)c2=O)cc1C` [Example 4, (S)-2-(5-Chloro-3-(6-methoxy-2,5-dimethylpyridin-3-ylamino)-2-oxopyrazin-1(2H)-yl)-2-cyclopropylethyl 2-chlorophenylcarbamate], the IC50 was 0.1 to 100 nM. Still for that read-out and setting: in the case of `COc1nc(C)c(Nc2nc(Cl)cn([C@H](COC(=O)Nc3ccc(Cl)cc3)C3CC3)c2=O)cc1C` [Example 5, (S)-2-(5-Chloro-3-(6-methoxy-2,5-dimethylpyridin-3-ylamino)-2-oxopyrazin-1(2H)-yl)-2-cyclopropylethyl 4-chlorophenylcarbamate] it was 0.1 to 100 nM. The molecule `COc1nc(C)c(Nc2nc(Cl)cn([C@H](COC(=O)Nc3cc(Cl)cc(Cl)c3)C3CC3)c2=O)cc1C` [Example 6, (S)-2-(5-Chloro-3-(6-methoxy-2,5-dimethylpyridin-3-ylamino)-2-oxopyrazin-1(2H)-yl)-2-cyclopropylethyl 3,5-dichlorophenylcarbamate] displayed an IC50 of 0.1 to 100 nM. On the same count and under the same terms, in the case of `COc1nc(C)c(Nc2nc(Cl)cn([C@H](COC(=O)Nc3ccc(Cl)cc3Cl)C3CC3)c2=O)cc1C` [Example 7, (S)-2-(5-Chloro-3-(6-methoxy-2,5-dimethylpyridin-3-ylamino)-2-oxopyrazin-1(2H)-yl)-2-cyclopropylethyl 2,4-dichlorophenylcarbamate] it was 0.1 to 100 nM; in that of `CCCNC(=O)OC[C@H](C1CC1)n1cc(Cl)nc(Nc2cc(C)c(OC)nc2C)c1=O` [Example 9, (S)-2-(5-Chloro-3-(6-methoxy-2,5-dimethylpyridin-3-ylamino)-2-oxopyrazin-1(2H)-yl)-2-cyclopropylethyl propylcarbamate], 0.1 to 100 nM.

Regarding `CCNC(=O)OC[C@H](C1CC1)n1cc(Cl)nc(Nc2cc(C)c(OC)nc2C)c1=O` [Example 10, (S)-2-(5-Chloro-3-(6-methoxy-2,5-dimethylpyridin-3-ylamino)-2-oxopyrazin-1(2H)-yl)-2-cyclopropylethyl ethylcarbamate], the IC50 fell in the range of 0.1 to 100 nM. `COc1nc(C)c(NC(=O)OC[C@H](C2CC2)n2cc(Cl)nc(Nc3cc(C)c(OC)nc3C)c2=O)cc1C` [Example 12, (S)-2-(5-Chloro-3-(6-methoxy-2,5-dimethylpyridin-3-ylamino)-2-oxopyrazin-1(2H)-yl)-2-cyclopropyl ethyl 6-methoxy-2,5-dimethylpyridin-3-ylcarbamate] gave an IC50 of 0.1 to 100 nM. `COc1ccc(NC(=O)OC[C@H](C2CC2)n2cc(Cl)nc(Nc3cc(C)c(OC)nc3C)c2=O)c(C)n1` [Example 13, (S)-2-(5-Chloro-3-(6-methoxy-2,5-dimethylpyridin-3-ylamino)-2-oxopyrazin-1(2H)-yl)-2-cyclopropylethyl 6-methoxy-2-dimethylpyridin-3-ylcarbamate]: the IC50 was 0.1 to 100 nM. Turning to `Cc1cc(Nc2nc(Cl)cn([C@H](COC(=O)Nc3cccnc3)C3CC3)c2=O)c(C)nc1OC(F)F` [Example 15, (S)-2-(5-Chloro-3-(6-(difluoromethoxy)-2,5-dimethylpyridin-3-ylamino)-2-oxopyrazin-1(2H)-yl)-2-cyclopropylethyl pyridin-3-ylcarbamate], the IC50 lay in the range of 0.1 to 100 nM.

The same data set, now with this note: 125I-o-CRF, numeric values.
`CCCCNC(=O)OC[C@H](C1CC1)n1cc(Cl)nc(Nc2cc(C)c(OC)nc2C)c1=O` [Example 8, (S)-2-(5-Chloro-3-(6-methoxy-2,5-dimethylpyridin-3-ylamino)-2-oxopyrazin-1(2H)-yl)-2-cyclopropylethyl butylcarbamate] registered an IC50 of 4.74 nM. As for `CCOc1nc(C)c(NC(=O)OC[C@H](C2CC2)n2cc(Cl)nc(Nc3cc(C)c(OC)nc3C)c2=O)cc1C` [Example 11, (S)-2-(5-Chloro-3-(6-methoxy-2,5-dimethylpyridin-3-ylamino)-2-oxopyrazin-1(2H)-yl)-2-cyclopropylethyl 6-ethoxy-2,5-dimethylpyridin-3-ylcarbamate], the 50% inhibitory concentration (IC50) is 15.9 nM. In turn, `Cc1cc(Nc2nc(Cl)cn([C@H](COC(=O)Nc3ccccc3)C3CC3)c2=O)c(C)nc1OC(F)F` [Example 14, (S)-2-(5-Chloro-3-(6-(difluoromethoxy)-2,5-dimethylpyridin-3-ylamino)-2-oxopyrazin-1(2H)-yl)-2-cyclopropylethyl phenylcarbamate] displayed an IC50 of 0.74 nM.

Another data set has as its system Human Y-79 retinoblastoma cells. In words: Functional Assay (Y-79 cells), CRF-stimulated cAMP production (HTRF). In kind it is cell-based. Particulars: stimulation of cAMP production in Y-79 cells, n=6. As to the method: Functional Assay (Y-79 cells).
Human Y-79 retinoblastoma cells were suspended in assay buffer (Hank's Balanced Salt Solution containing 2 mM CaCl2, 5 mM MgCl2, 20 mM HEPES, 1 mM IBMX) and plated at 20,000 cells/well in a 96-well black plate. CRF antagonists (typically 0.01 to 10,000 nM) were then added to wells as needed and allowed to equilibrate with the cells for 30 minutes at 37° C. […] The reaction was terminated by the addition of a lysis solution containing homogeneous time resolved florescence (HTRF) cAMP XL665 conjugate followed by HTRF anti-cAMP cryptate conjugate (CIS bio International). Plates were subsequently incubated at room temperature for 1 hour prior to reading the time-resolved fluorescence signal. The amount of cAMP produced was estimated from a standard curve prepared using known concentrations of cAMP. The percentage inhibition of CRF-induced cAMP production was determined for each compound (triplicate determinations). The effect of CRF antagonists on basal cAMP production (i.e. in the absence of CRF) was also determined.
Molecule Corticotropin releasing factor [CRF] came in with an EC50 of 1.11 ± 0.14 nM.

One may read the melting point as the temperature, or range, at which the solid turns liquid. One may read the IC50 as the concentration that gives 50% inhibition. A high value points to weaker potency. For orientation: EC50 means the concentration giving half of the maximal effect. High values mean a need for much substance, low ones an effect from little substance.
